# According to PubChem BioAssay AID488890 (Southern Research Specialized Biocontainment Screening …, 2010):
# Inconclusive results are not listed. Calls of active or inactive are those of the source. No rule for the calls is given here.
# Test system: Mycobacterium tuberculosis non-replicating, growth inhibition
# Experiment: growth inhibition of non-replicating M. tuberculosis (AID 488890)
row,Compound,IC50
1,CC1CCCN(CCSc2ccc(Cl)cc2)C1 (stereo not drawn),5.18 µM
2,Cc1ccc2c(CC(=O)OCC(=O)Nc3ccc(Cl)cn3)coc2c1,15 µM (inactive)
3,CCC(=O)Nc1nc2ccccc2n1Cc1ccccc1Cl,4.32 µM
4,Cc1cc(C(=O)N/N=C/c2ccc([N+](=O)[O-])o2)c(C)o1,5.51 µM
5,CC(C)(C)c1ccc(OCCC(=O)OCC(=O)NC2CC2)cc1,23.6 µM (inactive)
6,O=c1cc2[nH]c3ccccc3c(=O)n2nc1-c1ccccc1,7.1 µM
7,Cc1ccc(/C=C2/C(=O)NC(=O)N(CCc3ccc(F)cc3)C2=O)s1,16.7 µM (inactive)
8,CCCCNC(=O)Nc1nnc(-c2ccc(OCC)cc2)o1,21.9 µM (inactive)
9,C/C(=N/NC(=O)c1ccncc1)C1=C(O)CC(C)(C)CC1=O,13 µM (inactive)
10,Oc1ccccc1/C=N/Nc1ncc(Br)cn1,1.12 µM
11,COc1ccc(C(=O)Cn2c(C)nc([N+](=O)[O-])c2Br)cc1,19.9 µM (inactive)
12,COc1ccc(OCCOC(=O)CCS(=O)(=O)c2ccc(C)cc2)cc1,24.1 µM (inactive)
13,Cc1cc(S(=O)(=O)c2ccc([N+](=O)[O-])cn2)ccc1Br,0.15 µM
14,CC1(C)C[C@H]2C=C(C=O)[C@]3(C=O)C[C@]3(C)[C@H]2C1,2.94 µM
15,Cc1cccc(OC(=O)c2ccc3nccnc3c2)c1,7.79 µM
16,COc1ccc(OCC(=O)N/N=C2\CCc3ccccc32)cc1,9.35 µM
17,Cc1ccc(-c2nnc(SCC#CCOC(=O)c3ccco3)o2)cc1,0.11 µM
18,O=c1oc(-c2ccccc2[N+](=O)[O-])nc2ccccc12,18.9 µM (inactive)
19,Cc1ccccc1NC(=O)c1nc[nH]c1C(=O)NCc1ccccc1,23.7 µM (inactive)
20,c1ccc(-c2nc(NCCCn3ccnc3)c3ccccc3n2)cc1,17.8 µM (inactive)
21,CCOc1cc(CNCCO)cc(Br)c1OCc1ccccc1Cl,6.17 µM
22,CCOC(=O)N/N=C\c1ccc([N+](=O)[O-])s1,9.1 µM
23,CCOc1ccc(Nc2ccc([N+](=O)[O-])c3nonc23)cc1,1.72 µM
24,COc1ccc(-c2noc(CCC(=O)Nc3cccc(C)c3)n2)cc1,11.5 µM (inactive)

row,Compound,IC50
1,CN(CCCCOc1ccc(F)cc1)Cc1ccccc1,22.9 µM (inactive)
2,O=C(COC(=O)CCc1c[nH]c2ccccc12)NCc1ccc(Cl)cc1,7.82 µM
3,Cc1cc(N/N=C/c2ccccc2O)c2ccccc2n1,10.1 µM (inactive)
4,Cc1cccc(NC(=O)c2ccc([N+](=O)[O-])o2)c1C,6.39 µM
5,Nc1ccc(Nc2ccccc2)cc1,6 µM
6,O=[N+]([O-])c1ccc(S(=O)(=O)c2cccc(C(F)(F)F)c2)nc1,< 0.1 µM
7,Cc1cccc(NCCC(=O)c2ccc([N+](=O)[O-])cc2)c1C,3.58 µM
8,COc1ccc(N=N/C(=C\O)C(=O)c2cccs2)cc1,9.69 µM
9,CCCc1nnc(-c2ccc(OC)cc2)o1,1.24 µM
10,C/C(CC(=O)Nc1ccc(C)c(Cl)c1)=N\NC(=O)c1ccco1,28.8 µM (inactive)
11,Cc1cccc(NC(=O)c2n[nH]c([N+](=O)[O-])c2Br)c1C,7.96 µM
12,Cn1c(CNc2ccccc2O)nc2ccccc21,5.64 µM
13,Cc1ccccc1C(=O)Nc1nnc(-c2ccco2)o1,4.97 µM
14,COc1cccc(COC(=O)c2sc3nc4n(c(=O)c3c2C)CCC4)c1OC,2.48 µM
15,O=C(C#Cc1ccccc1)c1ccco1,0.43 µM
16,CN(CC(=O)Nc1ccc(Cl)cc1)C1CCCCC1,< 0.1 µM
17,COc1ccc(O)c(C(=O)CC(=O)c2ccc(F)cc2)c1,17.2 µM (inactive)
18,CCn1nnc(NC(=O)COc2ccc(C3CCCCC3)cc2)n1,1.5 µM
19,CCOC(=O)COc1cc([N+](=O)[O-])cc2cccnc12,25.5 µM (inactive)
20,Cc1ccc(NC(=O)COCC(=O)Nc2ccc(C)cc2)cc1,14.6 µM (inactive)
21,Cc1nc2c(=O)n(C)c(=O)n(C)c2nc1Cl,10.3 µM (inactive)
22,Cc1cccc(C)c1N1C(=O)CC(N2CCSCC2)C1=O (stereo not drawn),3.44 µM
23,COc1ccc(NC(=O)c2ccc(COCC(F)(F)C(F)F)cc2)cc1,12.6 µM (inactive)
24,CN(C)CC/C=C1\c2ccccc2Sc2cc(F)c(Cl)cc21,10.5 µM (inactive)

row,Compound,IC50
1,Cn1c(=O)c(Oc2ccc(F)cc2)c(O)c2ccccc21,8.27 µM
2,CC(=O)Nc1nc2ccccc2n1Cc1ccccc1Cl,14.1 µM (inactive)
3,Cc1cc(C)n(C(=O)c2ccc([N+](=O)[O-])cc2[N+](=O)[O-])n1,24.3 µM (inactive)
4,CCOC(=O)C1CCN(c2nc3cc(OC)ccc3cc2C#N)CC1,11.1 µM (inactive)
5,O=C(CCc1ccccc1F)N1CCN(c2ccccc2)CC1,2.08 µM
6,O=C(c1ccc(-c2ccc([N+](=O)[O-])cc2)o1)N1CCCCCCC1,11.6 µM (inactive)
7,O=C(O)c1ccc(NS(=O)(=O)/C=C/c2ccccc2)cc1O,3.11 µM
8,CCOC(=O)NC(=O)COC(=O)CCCSc1nc2ccccc2s1,10 µM (inactive)
9,CCCCCCCCCCn1ccc(=N)cc1,14.5 µM (inactive)
10,COc1ccc2nc(C)cc(N/N=C/c3ccccc3)c2c1,2.6 µM
11,CCOC(=O)COc1ccc2c(=O)c(-c3ccccc3OC)coc2c1,2.28 µM
12,Cc1ccc(C(=O)N/N=C\c2ccc[nH]2)cn1,16.9 µM (inactive)
13,CC(C)c1ccc(/C=N/NC(=O)c2ccccn2)cc1,12.9 µM (inactive)
14,Cc1ccc(NC(=O)c2ccc([N+](=O)[O-])o2)c(C)c1,8.9 µM
15,O=C(CNC(=O)c1ccccc1F)OCc1csc(-c2ccccc2)n1,15.2 µM (inactive)
16,CC(C)(C)c1ccc(OCCCC(=O)NC2=NCCS2)cc1,9.76 µM
17,CCOCC(=O)Nc1ccc(C)c(Cl)c1,5.63 µM
18,CN1C/C(=C/c2cccnc2)C(=O)/C(=C/c2cccnc2)C1,23.5 µM (inactive)
19,Cc1ccc(-n2c(C)cc(C3=NNC(=NC4CC4)SC3)c2C)cc1C,7.03 µM
20,Cc1cc(Br)ccc1OCC(=O)NNC(=O)c1cnccn1,6.09 µM
21,O=C(CCS(=O)(=O)c1ccc(F)cc1)Nc1nc(-c2ccccn2)cs1,7.41 µM
22,Cc1cccc(NCc2nnc(-c3ccccc3)o2)c1C,4.9 µM
23,CC(C)CN1C(=O)CC(Sc2ccccc2C(=O)O)C1=O (stereo not drawn),26.7 µM (inactive)
24,Cc1cc(NC(=O)c2cc([N+](=O)[O-])cc([N+](=O)[O-])c2)no1,17.3 µM (inactive)

row,Compound,IC50
1,CC(C)(C)NCc1cc(Br)ccc1OCc1cccs1,9.07 µM
2,O=S(=O)(c1ccc(OCC2CO2)cc1)c1ccc(OCC2CO2)cc1 (stereo not drawn),19.7 µM (inactive)
3,O=C1NCC(O)=C1C=Nc1ccccc1O,6.37 µM
4,Cc1ccc(C(=O)CCC2CCCC2=O)cc1 (stereo not drawn),14.4 µM (inactive)
5,CC1COC(=O)C(NNc2ccc(Cl)c(Cl)c2)=N1 (stereo not drawn),8.67 µM
6,FC(F)c1nnc2ccc(Cl)nn12,5.9 µM
7,CCOc1cccc2cc(C(=O)NC(C)c3ccccc3)c(=N)oc12 (stereo not drawn),32.9 µM (inactive)
8,CCCOC(=O)c1ccc(NC(=O)C2C3C=CC(O3)C2C(=O)O)cc1 (stereo not drawn),9.27 µM
9,C/C(=N\NC(=O)c1cc2ccccc2cc1O)c1ccc(C)o1,2.04 µM
10,Cc1ccc(CCC(=O)Nc2cc(Cl)ccc2Cl)o1,3.79 µM
11,Cc1ccc(Sc2ccc(C=C3C(=O)N(C)C(=O)N(C)C3=O)o2)cc1,3.04 µM
12,COc1ccc(Cl)cc1N=Cc1c(O)c2ccccc2oc1=O,44.3 µM (inactive)
13,O=C(Nc1nnc(-c2ccc(Cl)cc2)o1)C1=COCCO1,14 µM (inactive)
14,O=C(N/N=C/c1cccs1)c1cncc(Br)c1,4.85 µM
15,O=C1N=c2ccccc2=C1c1c(O)n(-c2cccc(F)c2)[nH]c1=O,6.91 µM
16,COc1c[nH]n(C2CCCCC2)c(=O)c1=O,8.76 µM
17,O=C(Nc1ccccc1C(=O)Nc1nnc(C(F)(F)F)s1)c1ccccc1,1.27 µM
18,CCn1cc(/C=N\NC(=O)c2ccc(F)cc2)cn1,24.3 µM (inactive)
19,COc1ccc2c(c1)sc(=N)n2C,19.3 µM (inactive)
20,O=C(N/N=C/c1cccc([N+](=O)[O-])c1O)c1cccs1,2.34 µM
21,O=C(Nc1ncccn1)c1ccc([N+](=O)[O-])o1,8.49 µM
22,Cc1csc(=Nc2cccnc2)n1CC1CCCCC1,17.5 µM (inactive)
23,COc1cccc(OCCNC(=O)c2cc([N+](=O)[O-])cc([N+](=O)[O-])c2)c1,0.49 µM
24,Cc1cc(C)n(-c2nc(SCCN(C)C)c3c4c(sc3n2)CCCC4)n1,6.69 µM

row,Compound,IC50
1,Cc1nc(C)c(/C(O)=C/c2nc3ccccc3oc2=O)s1,1.07 µM
2,COc1ccc(NC(=O)c2ccc(-c3ccc([N+](=O)[O-])cc3)o2)cc1OC,3.93 µM
3,NC(=O)c1ccc(N=Cc2ccc([N+](=O)[O-])s2)cc1,11.8 µM (inactive)
4,COc1ccc(C2=Nc3ccccc3OC2)cc1,5.2 µM
5,COc1ccc(-c2cc(C(F)(F)F)nc(S(C)(=O)=O)n2)cc1,2.87 µM
6,CCC(=O)N/N=C/c1ccc(-c2ccc(Cl)cc2)o1,8.36 µM
7,Cc1ccc(NC(=O)c2ccc([N+](=O)[O-])o2)cc1C,0.28 µM
8,CCc1ccc(N2NC(=O)/C(=C/C=C/c3ccco3)C2=O)cc1,3.65 µM
9,Cc1nnsc1C(=O)N/N=C/c1ccc2ccccc2c1O,0.48 µM
10,Cc1c(CN2CCC(CO)(CCOc3ccccc3)CC2)[nH]c2ccc(Cl)cc12,15.9 µM (inactive)
11,CCOC(=O)c1ccc(NC(=O)CCSCCc2ccccn2)cc1,23.4 µM (inactive)
12,Clc1ccc(SCCOCCN2CCc3ccccc3C2)cc1,13.5 µM (inactive)
13,Cc1ccc(C(=O)N2N=C(CC(C)C)CC2(O)C(F)(F)F)o1 (stereo not drawn),6.3 µM
14,Cc1ccc(-n2cc(CNCCc3ncc(C)[nH]3)c(-c3ccc(F)cc3)n2)cc1,17.3 µM (inactive)
15,COc1ccc(C2=NOC(COC(=O)c3ccc4ccccc4n3)C2)cc1 (stereo not drawn),5.43 µM
16,O=C1c2cc([N+](=O)[O-])cc3cc([N+](=O)[O-])cc(c23)C(=O)N1c1ccccn1,3.46 µM
17,C/C(=N\Nc1ccc(Cl)cc1)c1ccccn1,15.9 µM (inactive)
18,COC(=O)c1ccc(C(=O)NC2CCCc3c2cnn3-c2cc(F)cc(F)c2)nc1 (stereo not drawn),9.55 µM
19,CN(C)c1ccc(/C=C2\N=C(C(C)(C)C)OC2=O)cc1,9.11 µM
20,Cc1cccc(OCCCCc2c(C)n[nH]c2C)c1,9.86 µM
21,OC(COc1ccccc1Cl)CN1CCN(CC(O)COc2ccccc2Cl)CC1 (stereo not drawn),19 µM (inactive)
22,CCOc1ccc(OCC(=O)Nc2ccc(OC)cc2)cc1,10.2 µM (inactive)
